Values quoted from earlier work as cited in patent US20140220138A1, “ENHANCED NITRIC OXIDE DELIVERY AND USES THEREOF” (Albert Einstein College of Medicine of Yeshiva University, priority 2011, published 2014).
≈ marks a conversion by molar mass, not a printed value.

SMILES: N[C@@H](CCC(=O)N[C@@H](CSN=O)C(=O)NCC(=O)O)C(=O)O [GSNO, S-nitrosoglutathione]
- MIC90 (E. coli (ATCC 25922)): 5 mM (≈ 1680 µg/mL)

SMILES: [N]=O [NO, nitric oxide]
- reduction in Bacillus viability (Bacillus subtilis; 20-25 μM NO repetitively added over time): 100 fold
- viability after exposure to NO (Bacillus subtilis; exposure to either 50 or 200 μM NO): no significant loss in viability
